Source: ChEMBL document CHEMBL1158852, “A new sesquiterpene ester from Celastrus orbiculatus reversing multidrug resistance in cancer cells” (J Nat Prod, 1998)

Columns and labels:
[1] = Cytotoxicity against human KB-3-1 cells by SRB assay; assay type: functional, cell-based
[2] = Cytotoxicity against drug-resistant human KBV1 cells by SRB assay; assay type: functional, cell-based; conditions: KB-V1
[3] = Cytotoxicity against drug-resistant human KBV1 cells in presence of 0.1 uM Vinblastine by SRB assay; assay type: functional, cell-based; conditions: KB-V1
MCF7 = test: Cytotoxicity against human MCF7 cells by SRB assay; assay type: functional, cell-based
[4] = Cytotoxicity against drug-resistant human MCF7/ADR cells by SRB assay; assay type: functional, cell-based; conditions: NCI/ADR-RES
[5] = Cytotoxicity against drug-resistant human MCF7/ADR cells in presence of 10 uM Adriamycin by SRB assay; assay type: functional, cell-based; conditions: NCI/ADR-RES
SNB-19 = test: Cytotoxicity against human SNB19 cells by SRB assay; assay type: functional, cell-based
SK-OV-3 = test: Cytotoxicity against human SKOV3 cells by SRB assay; assay type: functional, cell-based
NCI-H23 = test: Cytotoxicity against human NCI-H23 cells by SRB assay; assay type: functional, cell-based
UACC-62 = test: Cytotoxicity against human UACC62 cells by SRB assay; assay type: functional, cell-based
KM12 = test: Cytotoxicity against human KM12 cells by SRB assay; assay type: functional, cell-based
[6] = Cytotoxicity against human MOLT cells by SRB assay; assay type: functional, cell-based
KBV1 [7] = test: Inhibition of P-gp-mediated multidrug resistance assessed as ratio of Adriamycin IC50 for drug-resistant human KBV1 cells to drug-sensitive human KB-3-1 cells at 3 uM; assay type: cell-based
KBV1 [8] = test: Inhibition of P-gp-mediated multidrug resistance assessed as ratio of Vinblastine IC50 for drug-resistant human KBV1 cells to drug-sensitive human KB-3-1 cells at 3 uM; assay type: cell-based
KBV1 [9] = test: Inhibition of P-gp-mediated multidrug resistance assessed as ratio of Paclitaxel IC50 for drug-resistant human KBV1 cells to drug-sensitive human KB-3-1 cells at 3 uM; assay type: cell-based

CC(=O)O[C@H]1C[C@@H](C)[C@]23OC(C)(C)[C@H](C[C@H](OC(=O)c4ccccc4)[C@]2(C)[C@H]1OC(C)=O)[C@H]3OC(=O)c1ccccc1 [ORBICULIN A]
IC50 [1]: 49 µM | IC50 [2]: 64.9 µM | IC50 [3]: 0.8 µM | IC50 (MCF7): 53.2 µM | IC50 [4]: 61.9 µM | IC50 [5]: 1.15 µM | IC50 (SNB-19): 40.8 µM | IC50 (SK-OV-3): 48.4 µM | IC50 (NCI-H23): 41.9 µM | IC50 (UACC-62): 38.8 µM | IC50 (KM12): 38.6 µM | IC50 [6]: 7.33 µM

CC(=O)O[C@H]1CC[C@@H](C)[C@]23OC(C)(C)[C@H](C[C@H](OC(=O)c4ccccc4)[C@]12C)[C@H]3OC(=O)c1ccccc1
IC50 [1]: 9.26 µM | IC50 [2]: 13 µM | IC50 [3]: 1.36 µM | IC50 (MCF7): 10.8 µM | IC50 [4]: 14.4 µM | IC50 [5]: 1.39 µM | IC50 (SNB-19): 18.3 µM | IC50 (SK-OV-3): 19.3 µM | IC50 (NCI-H23): 16.8 µM | IC50 (UACC-62): 12.9 µM | IC50 (KM12): 14.9 µM | IC50 [6]: 3.05 µM | Ratio IC50 (KBV1 [7]): 98.8 | Ratio IC50 (KBV1 [8]): 63.9 | Ratio IC50 (KBV1 [9]): 37.1
